Results taken from patent US12624018B1, “Inhibitors of RIPK2 and medical uses thereof” (Odyssey Therapeutics, Inc., priority 2022, dated 2026).

Experiments:
RIPK2 enzyme = target: T1, RIPK2 enzyme (Homo sapiens, UniProt O43353); experiment: RIPK2 inhibition (ADP-Glo Kinase Assay); assay type: biochemical; conditions: RIPK2 5 nM, ATP 150 μM, MBP substrate, read-out: RIPK2 IC50
T1 construct: purchased Carna 09-128
Summary of the method: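 Human RIPK2 (5 nM) preincubated with compound 30 min at room temperature in 50 mM HEPES pH 7.5, 10 mM MgCl2, 2 mM DTT, 1 mM EGTA, 0.01% Brij-35, 0.05% BSA; native swine MBP as substrate. ADP formed quantified by ADP-Glo luminescence; percent inhibition relative to DMSO and no-enzyme controls.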

human NOD2 signaling = experiment: Inhibition of human NOD2 signaling in HEK-Blue-hNOD2 cells (L18-MDP stimulated, SEAP reporter); assay type: cell-based; conditions: Homo sapiens, HEK-Blue hNOD2, HEK-Blue-hNOD2 cells, NOD2 ligand stimulation, SEAP reporter; read-out: hNOD2 IC50
Summary of the method: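 HEK-Blue-hNOD2 cells (HEK293 with NOD2 and SEAP reporter), 12500/well, treated with 10-point 3-fold compound dilutions plus L18-MDP 0.5 ng/mL final, 24 h at 37 °C. Supernatant SEAP read with QUANTI-Blue after 3 h at 620 nm; IC50 by 4-parameter fit vs DMSO±L18-MDP controls.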

[1] = tested on: TNF-alpha secretion in human whole blood; experiment: Inhibition of TNF-alpha secretion in human whole blood (IFN-gamma primed, L18-MDP stimulated); assay type: cell-based; conditions: Homo sapiens, 16 h, L18-MDP 100 ng/mL, read-out: Human Whole Blood TNFα IC50
Protocol: Materials: Assay medium consisted of RPMI 1640 medium (catalogue number: 11875119) and 10% heat inactivated FBS (Cytvia). U-PLEX Biomarker Assay (cat #K15067L-4) to detect levels of TNF-alpha was purchased from Meso Scale Discovery. Heparinized whole blood from healthy donors/volunteers was obtained through Research Blood Components, LLC.
Test compounds were prepared into a 10 mM DMSO solution and serially diluted into 9 points using a 3-fold dilution in a 96 well plate. A 10× working stock solution of recombinant human IFN-gamma (final concentration of 10 ng/mL) was prepared in assay medium and used to prepare a 10× solution of test compound. 20 μL of 10×IFN-gamma and test compound (or DMSO control) was added to a 96-well plate. 160 μL of heparinized whole blood obtained from healthy donors was dispensed into individual wells of the 96-well plate and placed on a plate shaker (150 rpm) and incubated for 60 min at 37° C. in a CO2 incubator. Subsequently, 20 μL of L18-MDP (final concentration of 100 ng/mL) was added to the appropriate wells and further incubated for 16 hours on a plate shaker (150 rpm) at 37° C. in a CO2 incubator. The final concentration of DMSO was 0.05% (v/v) in all wells. After incubation, 100 μL of DPBS was added per well, mixed by shaking at 500 rpm for 2 minutes, followed by centrifugation (400×g for 10 minutes) and collection of supernatants. TNF-alpha in supernatants was measured using MSD immunoassay (MesoScale Discovery). 4-parametric curve fit was used to determine the test compound concentration that results in 50% reduction of TNF-alpha concentration in supernatant relative to assay controls.

[2] = target: T2, RIPK2 and XIAP protein-protein interaction (Homo sapiens, UniProt O43353); experiment: Inhibition of the interaction of RIPK2 with XIAP (NanoBRET in HEK293T cells); assay type: cell-based; conditions: RIPK2 HaloTag / XIAP NanoLuc, read-out: NanoBRET Scaffolding IC50
T2 construct: the N-terminus of full-length RIPK2 was appended with the HaloTag fusion protein; expressed in transfected cells; host or cells: HEK293T
T2 sequence (O43353 whole entry, the tested form may be a part): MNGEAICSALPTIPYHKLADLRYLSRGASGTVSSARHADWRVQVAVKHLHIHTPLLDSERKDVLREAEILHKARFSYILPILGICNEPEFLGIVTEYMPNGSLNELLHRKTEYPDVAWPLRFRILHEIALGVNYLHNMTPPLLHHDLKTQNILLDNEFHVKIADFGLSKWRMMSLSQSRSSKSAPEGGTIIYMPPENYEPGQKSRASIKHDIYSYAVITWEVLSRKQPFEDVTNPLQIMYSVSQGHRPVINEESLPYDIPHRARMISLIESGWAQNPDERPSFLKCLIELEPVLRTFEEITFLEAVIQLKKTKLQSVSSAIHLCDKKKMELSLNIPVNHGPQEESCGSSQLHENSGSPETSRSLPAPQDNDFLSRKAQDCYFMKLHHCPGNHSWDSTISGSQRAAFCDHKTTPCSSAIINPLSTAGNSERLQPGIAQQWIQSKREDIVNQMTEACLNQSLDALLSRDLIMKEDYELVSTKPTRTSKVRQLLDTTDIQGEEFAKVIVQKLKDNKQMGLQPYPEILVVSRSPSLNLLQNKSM
Summary of the method: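 HEK293T cells transiently co-transfected with HaloTag-RIPK2 (N-terminal) and XIAP-NanoLuc (C-terminal) full-length fusions, grown 24 h at 37° C. in Opti-MEM with 4% FBS. Compounds tested as 10-point 3-fold dilutions; NanoBRET ratio taken as 618 nm acceptor over 460 nm donor emission.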

T1 sequence (O43353 1-299 limits assumed): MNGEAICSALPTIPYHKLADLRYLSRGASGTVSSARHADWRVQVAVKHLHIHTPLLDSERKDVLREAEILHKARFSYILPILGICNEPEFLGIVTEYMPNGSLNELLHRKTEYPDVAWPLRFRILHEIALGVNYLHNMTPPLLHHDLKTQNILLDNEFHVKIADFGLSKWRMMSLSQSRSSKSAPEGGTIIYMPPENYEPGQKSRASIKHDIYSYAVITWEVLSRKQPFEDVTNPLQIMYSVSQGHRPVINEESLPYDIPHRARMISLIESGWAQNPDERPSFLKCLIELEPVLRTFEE

Row | SMILES | IC50 (RIPK2 enzyme) | IC50 (human NOD2 signaling) | IC50 [1] | IC50 [2]
1 | Cc1c(Oc2ccnc3ccc(S(=O)(=O)C4CC4)cc23)ccc(CC(=O)Nc2cnn(C(C)(C)C)c2)c1F [Compound 174, N-(1-(tert-butyl)-1H-pyrazol-4-yl)-2-(4-((6-(cyclopropylsulfonyl)quinolin-4-yl)oxy)-2-fluoro-3-methylphenyl)acetamide] | < 2.5 nM | 0.2 nM | 2 nM | 5 nM
2 | Cc1cc(CC(=O)Nc2cnn(C(C)(C)C)c2)ccc1Oc1ccnc2ccc(P(C)(C)=O)cc12 [Compound 179, N-(1-(tert-butyl)-1H-pyrazol-4-yl)-2-(4-((6-(dimethylphosphoryl)quinolin-4-yl)oxy)-3-methylphenyl) acetamide] | < 2.5 nM | 38.1 nM | 6 nM | 465 nM
3 | Cc1cc(CC(=O)Nc2noc(C(C)(C)C)n2)ccc1Oc1ccnc2ccc(S(C)(=O)=O)cc12 [Compound 182, N-(5-(tert-butyl)-1,2,4-oxadiazol-3-yl)-2-(3-methyl-4-((6-(methylsulfonyl)quinolin-4-yl)oxy)phenyl) acetamide] | < 2.5 nM | 2 nM | 14 nM | 18 nM
4 | Cc1cc(CC(=O)Nc2cnn(C34CC(C3)C4)c2)ccc1Oc1ccnc2ccc(S(C)(=O)=O)cc12 [Compound 239, N-(1-(bicyclo[1.1.1]pentan-1-yl)-1H-pyrazol-4-yl)-2-(3-methyl-4-((6-(methylsulfonyl)quinolin-4-yl)oxy)phenyl)acetamide] | < 2.5 nM | 2.9 nM | 37 nM | 20 nM
5 | Cc1cc(CC(=O)Nc2cnn(C(C)(C)C)c2)ccc1Oc1ncnc2ccc(CN3CCNCC3)cc12 [Compound 253, N-(1-(tert-butyl)-1H-pyrazol-4-yl)-2-(3-methyl-4-((6-(piperazin-1-ylmethyl)quinazolin-4-yl)oxy)phenyl)acetamide] | < 2.5 nM | 7.2 nM | 7 nM | 174 nM
6 | Cc1cc(CC(=O)Nc2cnn(C(C)(C)C)c2)cc(F)c1Oc1ccnc2ccc(S(C)(=O)=O)cc12 [Compound 299, N-(1-(tert-butyl)-1H-pyrazol-4-yl)-2-(3-fluoro-5-methyl-4-((6-(methylsulfonyl)quinolin-4-yl)oxy)phenyl)acetamide] | < 2.5 nM | 3.4 nM | 49 nM | 73 nM
7 | COc1cc2nccc(Oc3ccc(CC(=O)Nc4cnn(C(C)(C)C)c4)cc3C(F)F)c2cc1S(C)(=O)=O [Compound 413, N-(1-(tert-butyl)-1H-pyrazol-4-yl)-2-(3-(difluoromethyl)-4-((7-methoxy-6-(methylsulfonyl)quinolin-4-yl)oxy)phenyl) acetamide] | < 2.5 nM | 2.5 nM | 13 nM | 27 nM
8 | CC(C)(C)n1cc(NC(=O)Cc2cc(Cl)c(Oc3ccnc4ccc(S(C)(=O)=O)cc34)cc2F)cn1 [Compound 429, N-(1-(tert-butyl)-1H-pyrazol-4-yl)-2-(5-chloro-2-fluoro-4-((6-(methylsulfonyl)quinolin-4-yl)oxy)phenyl)acetamide] | < 2.5 nM | 1.6 nM | 18 nM | 44 nM
9 | Cc1cc(CC(=O)Nc2nnc(C(C)(C)C)s2)c(F)cc1Oc1ccnc2ccc(S(C)(=O)=O)cc12 [Compound 443, N-(5-(tert-butyl)-1,3,4-thiadiazol-2-yl)-2-(2-fluoro-5-methyl-4-((6-(methylsulfonyl)quinolin-4-yl)oxy)phenyl) acetamide] | < 2.5 nM | 1.1 nM | 83 nM | 11 nM
10 | Cc1cc(CC(=O)Nc2cnn(C(C)(C)C)c2)c(F)cc1Oc1ccnc2cc(F)c(C(N)=O)cc12 [Compound 465, 4-(4-(2-((1-(tert-butyl)-1H-pyrazol-4-yl)amino)-2-oxoethyl)-5-fluoro-2-methylphenoxy)-7-fluoroquinoline-6-carboxamide] | < 2.5 nM | 0.2 nM | 2.6 nM | 4.2 nM
11 | Cc1cc(CC(=O)Nc2cnn(C(C)(C)C)c2)cc(F)c1Oc1ccnc2ccc(C(N)=O)cc12 [Compound 468, 4-(4-(2-((1-(tert-butyl)-1H-pyrazol-4-yl)amino)-2-oxoethyl)-2-fluoro-6-methylphenoxy)quinoline-6-carboxamide] | < 2.5 nM | 2.1 nM | 8.4 nM | 69.1 nM
12 | Cc1c(Oc2ccnc3ccc(S(C)(=O)=O)cc23)cc(F)c(CC(=O)Nc2cnn(C(C)(C)C)c2)c1F [Compound 472, N-(1-(tert-butyl)-1H-pyrazol-4-yl)-2-(2,6-difluoro-3-methyl-4-((6-(methylsulfonyl)quinolin-4-yl)oxy)phenyl)acetamide] | < 2.5 nM | 0.3 nM | 4.1 nM | 13.3 nM
13 | [2H]C([2H])([2H])NC(=O)c1ccc2nccc(Oc3cc(F)c(CC(=O)Nc4cnn(C(C)(C)C)c4)cc3C)c2c1 [Compound 492, 4-(4-(2-((1-(tert-butyl)-1H-pyrazol-4-yl)amino)-2-oxoethyl)-5-fluoro-2-methylphenoxy)-N-(methyl-d3)quinoline-6-carboxamide] | < 2.5 nM | 3.7 nM | 5.9 nM | 22 nM
14 | [2H]C([2H])([2H])NC(=O)c1ccc2nccc(Oc3ccc(CC(=O)Nc4cnn(C56CC(C5)C6)c4)cc3C)c2c1 [Compound 559, 4-(4-(2-((1-(bicyclo[1.1.1]pentan-1-yl)-1H-pyrazol-4-yl)amino)-2-oxoethyl)-2-methylphenoxy)-N-(methyl-d3)quinoline-6-carboxamide] | < 2.5 nM | 1 nM | 2 nM | 95.8 nM
